Values of other authors, collected in PubChem BioAssay AID1259409 (Chemical Carcinogenesis Research Information System (CCRIS), 2018).
*1 amine or outer side, *2 acyl side, *3 side chain or, on linkers, in order; H or OH if unused. Where a SMILES comes first, the peptide text is derived from it. CO = O=C([*:1])[*:2]

Test system: rodent chemically induced tumor inhibition, incidence and multiplicity
Assay: CCRIS tumor inhibitor studies
Settings: Promoter: NONE USED

For `O=C1C=C(/C=C/c2ccccc2)C(O)O1` (configuration not stated), the “tumour outcome (control, treated, inhibition, significance)” value (Carcinogen: AZOXYMETHANE, 25843-45-2, Dose [Inhibitor]: 0, 0.02% IN DIET FOR FIRST 3 WK OF STUDY (STUDY DURATION: 1 YR), Route [Inhibitor]: ORAL, Species: RAT, Strain/Sex: F344/MALE, Target Tissue: Type of Lesion: INTESTINE: ADENOMA OR ADENOCARCINOMA, Dose [Carcinogen]: 15 MG/KG BW ONCE IN WK 1 AND ONCE IN WK 3 OF STUDY) is listed as 20/27 (74%), 7/18 (39%), 47%, p<0.02, the “tumour outcome (control, treated, inhibition, significance)” value (Carcinogen: AZOXYMETHANE, 25843-45-2, Dose [Inhibitor]: 0, 100 PPM IN DIET FOR DURATION OF STUDY BEGINNING 1 WK POST CARCINOGEN TREATMENT (STUDY DURATION: 32 WK), Route [Inhibitor]: ORAL, Species: RAT, Strain/Sex: F344/MALE, Target Tissue: Type of Lesion: LARGE INTESTINE: ADENOCARCINOMA, Dose [Carcinogen]: 15 MG/KG BW 1/WK FOR 3 WK) is listed as 10/30 (33%), 5/28 (18%), 45%, not significant and the “tumour outcome (control, treated, inhibition, significance)” value (Carcinogen: AZOXYMETHANE, 25843-45-2, Dose [Inhibitor]: 0, 100 PPM IN DIET FOR DURATION OF STUDY BEGINNING 1 WK POST CARCINOGEN TREATMENT (STUDY DURATION: 32 WK), Route [Inhibitor]: ORAL, Species: RAT, Strain/Sex: F344/MALE, Target Tissue: Type of Lesion: LARGE INTESTINE: ADENOMA, Dose [Carcinogen]: 15 MG/KG BW 1/WK FOR 3 WK) is listed as 1/30 (3%), 2/28 (7%), -133%, not significant. The “tumour outcome (control, treated, inhibition, significance)” value (Carcinogen: AZOXYMETHANE, 25843-45-2, Dose [Inhibitor]: 0, 100 PPM IN DIET FOR DURATION OF STUDY BEGINNING 1 WK POST CARCINOGEN TREATMENT (STUDY DURATION: 32 WK), Route [Inhibitor]: ORAL, Species: RAT, Strain/Sex: F344/MALE, Target Tissue: Type of Lesion: SMALL INTESTINE: ADENOCARCINOMA, Dose [Carcinogen]: 15 MG/KG BW 1/WK FOR 3 WK) was 12/30 (40%), 7/28 (25%), 38%, not significant, the “tumour outcome (control, treated, inhibition, significance)” value (Carcinogen: AZOXYMETHANE, 25843-45-2, Dose [Inhibitor]: 0, 100 PPM IN DIET FOR DURATION OF STUDY BEGINNING 1 WK POST CARCINOGEN TREATMENT (STUDY DURATION: 32 WK), Route [Inhibitor]: ORAL, Species: RAT, Strain/Sex: F344/MALE, Target Tissue: Type of Lesion: SMALL INTESTINE: ADENOMA, Dose [Carcinogen]: 15 MG/KG BW 1/WK FOR 3 WK) was 1/30 (3%), 1/28 (4%), -33%, not significant and the “tumour outcome (control, treated, inhibition, significance)” value (Carcinogen: AZOXYMETHANE, 25843-45-2, Dose [Inhibitor]: 0, 200 PPM IN DIET FOR DURATION OF STUDY BEGINNING 1 WK POST CARCINOGEN TREATMENT (STUDY DURATION: 32 WK), Route [Inhibitor]: ORAL, Species: RAT, Strain/Sex: F344/MALE, Target Tissue: Type of Lesion: LARGE INTESTINE: ADENOCARCINOMA, Dose [Carcinogen]: 15 MG/KG BW 1/WK FOR 3 WK) was 10/30 (33%), 3/28 (11%), 67%, p<0.05. For the same molecule, the “tumour outcome (control, treated, inhibition, significance)” value (Carcinogen: AZOXYMETHANE, 25843-45-2, Dose [Inhibitor]: 0, 200 PPM IN DIET FOR DURATION OF STUDY BEGINNING 1 WK POST CARCINOGEN TREATMENT (STUDY DURATION: 32 WK), Route [Inhibitor]: ORAL, Species: RAT, Strain/Sex: F344/MALE, Target Tissue: Type of Lesion: LARGE INTESTINE: ADENOMA, Dose [Carcinogen]: 15 MG/KG BW 1/WK FOR 3 WK) was 1/30 (3%), 2/28 (7%), -133%, not significant, the “tumour outcome (control, treated, inhibition, significance)” value (Carcinogen: AZOXYMETHANE, 25843-45-2, Dose [Inhibitor]: 0, 200 PPM IN DIET FOR DURATION OF STUDY BEGINNING 1 WK POST CARCINOGEN TREATMENT (STUDY DURATION: 32 WK), Route [Inhibitor]: ORAL, Species: RAT, Strain/Sex: F344/MALE, Target Tissue: Type of Lesion: SMALL INTESTINE: ADENOCARCINOMA, Dose [Carcinogen]: 15 MG/KG BW 1/WK FOR 3 WK) was 12/30 (40%), 2/28 (7%), 83%, p<0.005 and the “tumour outcome (control, treated, inhibition, significance)” value (Carcinogen: AZOXYMETHANE, 25843-45-2, Dose [Inhibitor]: 0, 200 PPM IN DIET FOR DURATION OF STUDY BEGINNING 1 WK POST CARCINOGEN TREATMENT (STUDY DURATION: 32 WK), Route [Inhibitor]: ORAL, Species: RAT, Strain/Sex: F344/MALE, Target Tissue: Type of Lesion: SMALL INTESTINE: ADENOMA, Dose [Carcinogen]: 15 MG/KG BW 1/WK FOR 3 WK) was 1/30 (3%), 0/28 (0%), 100%, not significant.
For `CC(C)[C@H](NC(=O)[C@H](CCCN=C(N)N)NC(=O)N[C@@H](Cc1ccccc1)C(=O)O)C(=O)N[C@H](C=O)CCCN=C(N)N` ({Phe-CO}-Arg-Val-Arg-aldehyde), the “tumour outcome (control, treated, inhibition, significance)” value (Carcinogen: 1,2,3,4,5,6-HEXACHLOROCYCLOHEXANE, 319-84-6, Dose [Inhibitor]: 0.1% IN DIET FOR 12 WK POST CARCINOGEN TREATMENT (STUDY DURATION: 48 WK), Route [Inhibitor]: ORAL, Species: MOUSE, Strain/Sex: DDY/MALE, Target Tissue: Type of Lesion: LIVER: NODULAR HYPERPLASIA, Dose [Carcinogen]: 500 PPM IN DIET FOR 24 WK) is listed as 1/13 (7%), 2/15 (13%), -86%, not significant, the “tumour outcome (control, treated, inhibition, significance)” value (Carcinogen: N-BUTYL-N-(4-HYDROXY-BUTYL)NITROSAMINE, 3817-11-6, Dose [Inhibitor]: 0.1% IN DIET FOR 32 WK POST CARCINOGEN TREATMENT (STUDY DURATION: 40 WK), Route [Inhibitor]: ORAL, Species: MOUSE, Strain/Sex: ICR/MALE, Target Tissue: Type of Lesion: URINARY BLADDER: CANCER, Dose [Carcinogen]: 0.05% IN DRINKING WATER FOR FIRST 8 WK THEN FED BASAL DIET CONTAINING INHIBITOR) is listed as 1/13 (8%), 3/15 (20%), -150%, not significant and the “tumour outcome (control, treated, inhibition, significance)” value (Carcinogen: N-BUTYL-N-(4-HYDROXY-BUTYL)NITROSAMINE, 3817-11-6, Dose [Inhibitor]: 0.1% IN DIET FOR 32 WK POST CARCINOGEN TREATMENT (STUDY DURATION: 40 WK), Route [Inhibitor]: ORAL, Species: MOUSE, Strain/Sex: ICR/MALE, Target Tissue: Type of Lesion: URINARY BLADDER: PAPILLARY OR NODULAR HYPERPLASIA, Dose [Carcinogen]: 0.05% IN DRINKING WATER FOR FIRST 8 WK THEN FED BASAL DIET CONTAINING INHIBITOR) is listed as 4/13 (31%), 8/15 (53%), -71%, not significant. The “tumour outcome (control, treated, inhibition, significance)” value (Carcinogen: URETHANE, 51-79-6, Dose [Inhibitor]: 11 INJECTIONS (100 UG/G BW FOR EACH) AT 12 HR INTERVALS FROM 0-120 HR AFTER URETHANE TREATMENT (STUDY DURATION: 5 MO), Route [Inhibitor]: INTRAPERITONEAL, Species: MOUSE, Strain/Sex: ICR/JCI/FEMALE, Target Tissue: Type of Lesion: LUNG: TUMOR, Dose [Carcinogen]: 1.0 MG/G BW ONCE) was 49/53 (92%), 38/46 (83%), 10%, not significant and the “tumour outcome (control, treated, inhibition, significance)” value (Carcinogen: URETHANE, 51-79-6, Dose [Inhibitor]: 11 INJECTIONS (100 UG/G BW FOR EACH) AT 12 HR INTERVALS FROM 240-360 HR AFTER URETHANE TREATMENT (STUDY DURATION: 5 MO), Route [Inhibitor]: INTRAPERITONEAL, Species: MOUSE, Strain/Sex: ICR/JCI/FEMALE, Target Tissue: Type of Lesion: LUNG: TUMOR, Dose [Carcinogen]: 1.0 MG/G BW ONCE) was 49/53 (92%), 34/45 (76%), 17%, p<0.05.
In the case of `CC(=O)O[C@@H]1C(=O)O[C@H]2[C@@H]1OC(=O)[C@@H]2OC(C)=O`, the “tumour outcome (control, treated, inhibition, significance)” value (Carcinogen: 2-(ACETYLAMINO)FLUORENE, 6292-55-3, Dose [Inhibitor]: 1.2% IN DIET SIMULTANEOUSLY WITH CARCINOGEN (STUDY DURATION: 30 WK), Route [Inhibitor]: ORAL, Species: RAT, Strain/Sex: WISTAR/MALE, Target Tissue: Type of Lesion: URINARY BLADDER: TUMOR, Dose [Carcinogen]: 0.04% IN DIET SUPPLEMENTED WITH 1.4% D,L-TRYPTOPHAN) is given as 7/45 (20%), 11/40 (28%), -40%, not calculated, the “tumour outcome (control, treated, inhibition, significance)” value (Carcinogen: 2-(ACETYLAMINO)FLUORENE, 6292-55-3, Dose [Inhibitor]: 1.2% IN DIET SIMULTANEOUSLY WITH CARCINOGEN (STUDY DURATION: 30 WK), Route [Inhibitor]: ORAL, Species: RAT, Strain/Sex: WISTAR/MALE, Target Tissue: Type of Lesion: URINARY BLADDER: TUMOR, Dose [Carcinogen]: 0.04% IN VITAMIN B6 DEFICIENT DIET) is given as 6/33 (18%), 2/38 (5%), 72%, not calculated and the “tumour outcome (control, treated, inhibition, significance)” value (Carcinogen: 7,12-DIMETHYLBENZ[A]ANTHRACENE, 57-97-6, Dose [Inhibitor]: 400 MG/KG, 30 MIN BEFORE DMBA TREATMENT AND 3 HR AFTER DMBA TREATMENT (STUDY DURATION: 36 WK), Route [Inhibitor]: INTRAGASTRIC, Species: RAT, Strain/Sex: SPRAGUE-DAWLEY/FEMALE, Target Tissue: Type of Lesion: MAMMARY GLAND: TUMOR, Dose [Carcinogen]: 130 MG/KG ONCE) is given as 92%, 22%, 76%, not calculated.
